# PMC7178819, “6,7-Dimethoxy-2-phenethyl-1,2,3,4-tetrahydroisoquinoline amides and corresponding ester isosteres as multidrug resistance reversers” (Journal of Enzyme Inhibition and Medicinal Chemistry, 2020)
# Marks after values point to notes of the source that are not given here.
# What was measured:
# BCRP = molecular target: T1, BCRP (Homo sapiens, UniProt Q9UNQ0); test: Inhibition of Hoechst 33342 efflux in MDCK-BCRP cells; format: cell-based; conditions: for BCRP, percentage of the effect: at a concentration of 100 μM, MDCK-BCRP cells; for EC50: Hoechst 33342, MDCK-BCRP cells, NA: not active
# T1 construct: expressed in transfected cells; host or cells: MDCK-BCRP (Madin-Darby Canine Kidney cells, gift of Prof. P. Borst, NKI-AVL)
# T1 sequence (Q9UNQ0 1-655): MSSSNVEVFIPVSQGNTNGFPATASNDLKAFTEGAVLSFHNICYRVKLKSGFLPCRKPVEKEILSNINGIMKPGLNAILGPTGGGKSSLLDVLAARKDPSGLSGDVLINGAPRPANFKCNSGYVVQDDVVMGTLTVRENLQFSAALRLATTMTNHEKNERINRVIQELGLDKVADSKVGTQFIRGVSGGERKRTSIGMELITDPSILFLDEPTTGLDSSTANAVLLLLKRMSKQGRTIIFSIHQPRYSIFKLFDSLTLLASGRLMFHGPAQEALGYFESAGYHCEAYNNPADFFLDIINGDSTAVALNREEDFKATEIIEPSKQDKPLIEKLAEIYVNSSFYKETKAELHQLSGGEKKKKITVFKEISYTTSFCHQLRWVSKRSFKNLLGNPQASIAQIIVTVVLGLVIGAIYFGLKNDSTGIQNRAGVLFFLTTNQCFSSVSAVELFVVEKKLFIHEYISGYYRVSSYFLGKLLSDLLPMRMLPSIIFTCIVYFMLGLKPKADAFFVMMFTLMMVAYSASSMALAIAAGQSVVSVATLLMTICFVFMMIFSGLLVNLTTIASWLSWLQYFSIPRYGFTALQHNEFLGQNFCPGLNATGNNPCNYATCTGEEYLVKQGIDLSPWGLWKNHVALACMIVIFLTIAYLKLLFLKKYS
# Procedure: These experiments were carried out as described by Teodori et al.[34]. Each cell line (30 000 cells per well) was seeded into black CulturePlate 96/wells plate with 100 µL medium and allowed to become confluent overnight. 100 µL of test compounds were solubilised in culture medium and added to monolayers, with final concentrations ranging from 1 to 100 µM. 96/Wells plate was incubated for 30 min in a humidified atmosphere 5% CO2 at 37 °C. Hoechst 33342 was added in 100 µl of phosphate-buffered saline (PBS) to yield a final concentration of 8 µM and plate was incubated for 30 min in a humidified atmosphere 5% CO2 at 37 °C. The supernatants were drained, and the cells were fixed for 20 min under light protection using 100 µL per well of a 4% PFA solution. Each well was washed three times with ice cold PBS. Saline buffer was added to each well and the plate was read with Victor3 (PerkinElmer) at excitation and emission wavelengths of 340/35 nm and 485/20 nm, respectively. In these experimental conditions, Hoechst 33342 accumulation in the absence and in the presence of tested compounds was evaluated and fluorescence basal level was estimated with untreated cells. In treated wells, the increase of fluorescence with respect to basal level was measured. EC50 values were determined by fitting the fluorescence increase percentage versus log[dose]. […]
# P-gp = molecular target: T2, P-gp (Homo sapiens, UniProt P08183); test: ATP cell depletion (ATPlite assay) in MDCK-MDR1 cells; format: cell-based; conditions: Yes/No
# T2 construct: expressed in transfected cells; host or cells: MDCK-MDR1 (Madin-Darby Canine Kidney cells, gift of Prof. P. Borst, NKI-AVL)
# T2 sequence (P08183 whole entry): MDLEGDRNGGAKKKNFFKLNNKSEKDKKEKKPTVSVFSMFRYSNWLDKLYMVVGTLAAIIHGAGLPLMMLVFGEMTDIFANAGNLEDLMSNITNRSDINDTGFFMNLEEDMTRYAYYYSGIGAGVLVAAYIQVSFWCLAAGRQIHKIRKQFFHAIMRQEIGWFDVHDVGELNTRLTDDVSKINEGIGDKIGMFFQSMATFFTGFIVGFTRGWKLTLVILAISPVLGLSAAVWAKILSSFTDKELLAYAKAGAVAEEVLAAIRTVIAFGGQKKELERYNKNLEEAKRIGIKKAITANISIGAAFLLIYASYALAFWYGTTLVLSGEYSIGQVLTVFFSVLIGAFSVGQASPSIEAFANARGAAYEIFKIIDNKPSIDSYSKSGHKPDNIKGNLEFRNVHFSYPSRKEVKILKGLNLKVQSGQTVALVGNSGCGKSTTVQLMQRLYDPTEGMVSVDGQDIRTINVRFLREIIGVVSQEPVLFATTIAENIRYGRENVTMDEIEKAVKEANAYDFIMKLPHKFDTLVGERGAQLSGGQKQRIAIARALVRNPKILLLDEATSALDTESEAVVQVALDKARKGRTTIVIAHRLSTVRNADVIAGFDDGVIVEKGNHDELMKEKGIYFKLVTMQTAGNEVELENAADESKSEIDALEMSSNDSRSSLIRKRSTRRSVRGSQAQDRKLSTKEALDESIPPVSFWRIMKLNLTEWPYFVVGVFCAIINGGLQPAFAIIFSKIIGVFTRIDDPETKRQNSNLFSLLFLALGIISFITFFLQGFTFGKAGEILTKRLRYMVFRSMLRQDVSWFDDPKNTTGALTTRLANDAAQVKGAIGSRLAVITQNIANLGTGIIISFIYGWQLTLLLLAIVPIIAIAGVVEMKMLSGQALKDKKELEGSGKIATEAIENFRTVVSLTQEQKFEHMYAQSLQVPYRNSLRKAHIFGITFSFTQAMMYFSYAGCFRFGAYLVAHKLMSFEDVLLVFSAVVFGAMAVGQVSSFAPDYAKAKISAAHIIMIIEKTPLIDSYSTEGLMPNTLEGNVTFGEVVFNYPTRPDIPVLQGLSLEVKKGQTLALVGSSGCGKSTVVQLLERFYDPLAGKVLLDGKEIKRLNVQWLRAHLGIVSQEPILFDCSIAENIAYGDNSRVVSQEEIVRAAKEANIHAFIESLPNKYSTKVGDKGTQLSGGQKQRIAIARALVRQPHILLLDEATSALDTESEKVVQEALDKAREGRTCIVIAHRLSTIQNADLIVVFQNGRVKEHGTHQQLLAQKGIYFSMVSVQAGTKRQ
# Procedure, shortened: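 MDCK-MDR1 cells seeded at 20,000 per well and grown overnight were treated 2 h at 37 °C, 5% CO2 with compounds at 1 to 100 µM. After cell lysis and substrate addition, luminescence was measured following ten minutes of dark adaptation as the readout of cellular ATP.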
# [1] = Stability test in human plasma (LC-MS/MS); format: in vitro ADME; conditions: human, human plasma, 1 µM, 37 °C
# Procedure, shortened: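 Analyte at 1 µM in human plasma or PBS; after incubation, internal standard added, centrifuged, supernatant dried and redissolved in formic acid/acetonitrile 80:20. LC-MS/MS in MRM mode; first-order degradation rate k taken as slope of ln concentration versus incubation time.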
"BCRP, percentage of the effect (BCRP) [%^d]",ATP cell depletion (P-gp),half-life at 1 µM [1] [h],EC50 (BCRP) [µM],SMILES
44,No,0.9 ± 0.15,–,"COc1cc2c(cc1OC)CN(CCc1ccc(OC(=O)c3cccc(OC)c3OC)cc1)CC2 [Compound 18, 4–(2-(6,7-Dimethoxy-3,4-dihydroisoquinolin-2(1H)-yl)ethyl)phenyl 2,3-dimethoxybenzoate]"
–,No,≥ 4,1 ± 0.2,"COc1ccc(C(=O)Nc2ccc(CCN3CCc4cc(OC)c(OC)cc4C3)cc2)c(OC)c1 [Compound 3, N-(4–(2-(6,7-dimethoxy-3,4-dihydroisoquinolin-2(1H)-yl)ethyl)phenyl)-2,4-dimethoxybenzamide]"
43,No,≥ 4,–,"COc1cc2c(cc1OC)CN(CCc1ccc(OC(=O)c3c(OC)c(OC)cc4ccccc34)cc1)CC2 [Compound 21, 4–(2-(6,7-Dimethoxy-3,4-dihydroisoquinolin-2(1H)-yl)ethyl)phenyl 2,3-dimethoxy-1-naphthoate]"
–,No,≥ 4,7.3 ± 1.4,"COc1cc2c(cc1OC)CN(CCc1ccc(OC(=O)c3c(OC)ccc4ccccc34)cc1)CC2 [Compound 20, 4–(2-(6,7-Dimethoxy-3,4-dihydroisoquinolin-2(1H)-yl)ethyl)phenyl 2-methoxy-1-naphthoate]"
–,No,1.47 ± 0.367,11 ± 2,"COc1ccc(C(=O)Oc2ccc(CCN3CCc4cc(OC)c(OC)cc4C3)cc2)c(OC)c1 [Compound 16, 4–(2-(6,7-Dimethoxy-3,4-dihydroisoquinolin-2(1H)-yl)ethyl)phenyl 2,4-dimethoxybenzoate]"
47,No,1.05 ± 0.233,–,"COc1cc2c(cc1OC)CN(CCc1ccc(OC(=O)c3ccccc3OC)cc1)CC2 [Compound 15, 4–(2-(6,7-Dimethoxy-3,4-dihydroisoquinolin-2(1H)-yl)ethyl)phenyl 2-methoxybenzoate]"
–,No,≥ 4,15.1 ± 2.89,"COc1cc2c(cc1OC)CN(CCc1ccc(OC(=O)c3ccc(OC)c(OC)c3OC)cc1)CC2 [Compound 14, 4–(2-(6,7-Dimethoxy-3,4-dihydroisoquinolin-2(1H)-yl)ethyl)phenyl 2,3,4-trimethoxybenzoate]"
–,No,≥ 4,21.2 ± 4.2,"COc1cc2c(cc1OC)CN(CCc1ccc(NC(=O)c3ccc(OC)c(OC)c3OC)cc1)CC2 [Compound 1, N-(4–(2-(6,7-dimethoxy-3,4-dihydroisoquinolin-2(1H)-yl)ethyl)phenyl)-2,3,4-trimethoxybenzamide]"
–,No,≥ 4,–,"COc1cc2c(cc1OC)CN(CCc1ccc(NC(=O)c3c(OC)c(OC)cc4ccccc34)cc1)CC2 [Compound 8, N-(4–(2-(6,7-dimethoxy-3,4-dihydroisoquinolin-2(1H)-yl)ethyl)phenyl)-2,3-dimethoxy-1-naphthamide]"
35,No,≥ 4,–,"COc1cc2c(cc1OC)CN(CCc1ccc(OC(=O)c3cccc4ccccc34)cc1)CC2 [Compound 19, 4–(2-(6,7-Dimethoxy-3,4-dihydroisoquinolin-2(1H)-yl)ethyl)phenyl 1-naphthoate]"
41,No,≥ 4,–,"COc1cc2c(cc1OC)CN(CCc1ccc(NC(=O)c3cccc(OC)c3OC)cc1)CC2 [Compound 5, N-(4–(2-(6,7-dimethoxy-3,4-dihydroisoquinolin-2(1H)-yl)ethyl)phenyl)-2,3-dimethoxybenzamide]"
